Test results as given in patent publication US11053204B2, “Pyrimidinyloxy benzene derivatives as herbicides” (FMC Corporation, priority 2015, dated 2021).

Tests used:
Type in all cases: in vivo
[1] = system: pigweed (Amaranthus retroflexus); assay: Test C postemergence, plant response rating; conditions: for Pigweed plant response rating / pest or weed control at 62 g/ha / pest or weed control at 125 g/ha: scale 0 to 100 (0 no effect, 100 complete control)
In short: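 After sowing in loam–sand blend or silt loam, pots were sprayed preemergence; separately grown 1- to 4-leaf plants were sprayed postemergence. Following 13 to 15 d under greenhouse conditions, injury was rated visually on a 0 to 100 scale.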

[2] = system: barnyardgrass (Echinochloa crus-galli); assay: Test C preemergence, plant response rating; conditions: for pest or weed control at 16 g/ha / pest or weed control at 31 g/ha / pest or weed control at 62 g/ha / pest or weed control at 125 g/ha: Echinochloa crus-galli, pre-emergence; for pest or weed control at 16 g/ha / pest or weed control at 31 g/ha / pest or weed control at 62 g/ha / pest or weed control at 125 g/ha / Plant response rating, Barnyardgrass: Preemergence; for Barnyardgrass plant response rating: preemergence
[3] = system: johnsongrass (Sorghum halepense); assay: Test C preemergence, plant response rating
[4] = Amaranthus retroflexus, post-emergence, 16 g ai/ha, scale 0 to 100
[5] = Amaranthus retroflexus, post-emergence, 31 g ai/ha, scale 0 to 100
[6] = Amaranthus retroflexus, post-emergence, 62 g ai/ha
[7] = Amaranthus retroflexus, post-emergence, 125 g ai/ha

Structure (SMILES)	Plant response rating, Pigweed ([1]; 31 g ai/ha, scale 0 to 100)	Pigweed plant response rating ([1]; 62 g ai/ha)	Pigweed plant response rating ([1]; 125 g ai/ha)	pest or weed control at 16 g/ha ([2]; 16 g ai/ha, scale 0 to 100) [%]	pest or weed control at 31 g/ha ([2]; 31 g ai/ha, scale 0 to 100) [%]	pest or weed control at 16 g/ha [1, 4] [%]	pest or weed control at 31 g/ha [1, 5] [%]	pest or weed control at 62 g/ha ([2]; 62 g ai/ha, scale of 0 to 100) [%]	pest or weed control at 125 g/ha ([2]; 125 g ai/ha, scale of 0 to 100) [%]	pest or weed control at 62 g/ha [1, 6] [%]	pest or weed control at 125 g/ha [1, 7] [%]	Plant response rating, Barnyardgrass ([2]; 125 g ai/ha, scale of 0 to 100)	Plant response rating, Barnyardgrass ([2]; 16 g ai/ha, scale 0 to 100)	Plant response rating, Barnyardgrass ([2]; 31 g ai/ha, scale 0 to 100)	further results
N#CCCOC(=O)c1c(Br)cccc1Oc1ncc(Cl)cn1 [Compound 7]	40	60	70												Plant response rating, Pigweed ([1]; 16 g ai/ha, scale 0 to 100): 35
CCCOC(=O)c1c(Br)cccc1Oc1ncc(Cl)cn1 [Compound 13, propyl 2-bromo-6-[(5-chloro-2-pyrimidinyl)oxy]benzoate]				10	40	75	70								Barnyardgrass plant response rating ([2]; 4 g ai/ha, scale 0 to 100): 0; Barnyardgrass plant response rating ([2]; 8 g ai/ha, scale 0 to 100): 0; pest or weed control at 4 g/ha ([1]; Amaranthus retroflexus, post-emergence, 4 g ai/ha, scale of 0 to 100): 30%; pest or weed control at 8 g/ha ([1]; Amaranthus retroflexus, post-emergence, 8 g ai/ha, scale of 0 to 100): 60%
O=C(OCCC(F)(F)F)c1c(Cl)cccc1Oc1ncc(Cl)cn1 [Compound 15, 3,3,3-trifluoropropyl 2-chloro-6-[(5-chloro-2-pyrimidinyl)oxy]benzoate]				10	85	90	90	100	100	95	98				
CC(CC(F)(F)F)OC(=O)c1c(Br)cccc1Oc1ncc(Cl)cn1 (stereo not drawn) [Compound 16, 3,3,3-trifluoro-1-methylpropyl 2-bromo-6-[(5-chloro-2-pyrimidinyl)oxy]benzoate]				0	15	50	75	30	75	85	50				
O=C(OCCCC(F)(F)F)c1c(Br)cccc1Oc1ncc(Cl)cn1 [Compound 20, 4,4,4-trifluorobutyl 2-bromo-6-[(5-chloro-2-pyrimidinyl)oxy]benzoate]				0	5	85	95	30	85	98	95				
C=CCCOC(=O)c1c(Br)cccc1Oc1ncc(Cl)cn1 [Compound 21, 3-buten-1-yl 2-bromo-6-[(5-chloro-2-pyrimidinyl)oxy]benzoate]				10	55	85	75	90	98	90	90				
C=CCOC(=O)c1c(Br)cccc1Oc1ncc(Cl)cn1 [Compound 22, 2-propen-1-yl 2-bromo-6-[(5-chloro-2-pyrimidinyl)oxy]benzoate]						60	70			70	95				
N#Cc1cccc(Oc2ncc(Cl)cn2)c1C(=O)OCCC(F)(F)F [Compound 30]												25	10	15	Plant response rating, Johnsongrass ([3]; 16 g ai/ha, scale 0 to 100): 0; Plant response rating, Johnsongrass ([3]; 31 g ai/ha, scale 0 to 100): 0; Plant response rating, Johnsongrass ([3]; 62 g ai/ha, scale 0 to 100): 0; Plant response rating, Johnsongrass ([3]; 125 g ai/ha, scale of 0 to 100): 15; Plant response rating, Barnyardgrass ([2]; 62 g ai/ha, scale of 0 to 100): 10
O=C(CCCC(F)(F)F)c1c(Br)cccc1Oc1ncc(Cl)cn1 [Compound 77]	98	100	100									100	20	60	Plant response rating, Barnyardgrass ([2]; 62 g ai/ha, scale of 0 to 100): 98; Plant response rating, Pigweed ([1]; 16 g ai/ha, scale of 0 to 100): 95
O=C(CCC(F)(F)F)c1c(Br)cccc1Oc1ncc(Cl)cn1 [Compound 92]	90	98	100									100	35	85	Plant response rating, Barnyardgrass ([2]; 62 g ai/ha, scale 0 to 100): 98; Plant response rating, Pigweed ([1]; 16 g ai/ha, scale of 0 to 100): 85
